Patent US10604514B2, “6-(5-membered heteroaryl)isoquinolin-3-yl carboxamides and preparation and use thereof” (Samumed, LLC, priority 2017, dated 2020)
Where two headings read alike, the source gives them in different places.

Legend:
[1] = tested on: SW480 colon carcinoma cells; test: Cell viability assay (CellTiter-Glo) in SW480 cells; format: cell-based, human; conditions: Homo sapiens; for EC50: 96 h, cell viability, SW480 cells, four days, CellTiter-Glo; for inhibition at 10 µM: SW480, read-out: percent inhibition at 10 μM;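 on all read-outs here: SW480 cells stably carrying an Sp5-luciferase TCF/LEF reporter, luminescent ATP signal as viability measure, DMSO-treated cells as control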
Procedure: Representative compounds were screened using the assay procedure to assess the effect on cell viability as described below.
SW480 colon carcinoma cells were transduced with a lentiviral vector expressing luciferase with a human Sp5 promoter consisting of a sequence of eight TCF/LEF binding sites. SW480 cells stably expressing the Sp5-Luc reporter gene and a hygromycin resistance gene were selected by treatment with 150 μg/mL of hygromycin for 7 days. These stably transduced SW480 cells were expanded in cell culture and used for all further screening activities. Each compound was dissolved in DMSO as a 10 mM stock and used to prepare compound source plates.
For the Cell Viability Assays, the cells were plated at 2,000 cells/well in 384-well plates with a DMEM medium containing 1% fetal bovine serum, and 1% Penicillin-Streptomycin and incubated for four days hours at 37° C. and 5% CO2. Eight replicates of DMSO-treated cells served as controls and cells treated with compound were performed in duplicate.
After incubation, 10 μL of CellTiter-Glo (Promega) was added to each well allowed to incubate for approximately 12 minutes.
Dose-response curves were generated and EC50 concentration values were calculated using non-linear regression curve fit in the GraphPad Prism (San Diego, Calif.) or Dotmatics' Studies Software (Bishops Stortford, UK).

[2] = tested on: LL29 cells (primary human fibroblasts derived from IPF patients), α-smooth muscle actin; test: Inhibition of fibrotic process: αSMA in TGF-β1-treated primary human fibroblasts from IPF patients (LL29 cells); format: cell-based; conditions: Homo sapiens, Fibroblast; for EC50: 96 h, % αSMA-positive LL29 cells, TGF-β1 20 ng/mL, 4 days
Method in brief: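 Read-out is the percentage of αSMA-positive cells by high-content imaging, excluding SYTOX green-positive dead/apoptotic cells, normalized to TGF-β1-only wells on the same plate. LL29 cells were exposed for 4 days at 37 °C to 20 ng/mL TGF-β1 plus 11-point, 2-fold compound dilutions in 0.1% DMSO.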

[3] = tested on: Tau phosphorylation at Ser396 (pSer396), SH-SY5Y cells; test: Tau phosphorylation at Ser396 (pSer396) in SH-SY5Y cells, ELISA/western blot; format: cell-based, human; conditions: Homo sapiens; SH-SY5Y cells, overnight (16-18 h); read-out: pSer396 Tau EC50;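 further: cell lysates probed for reduced Tau pSer396 via ELISA (colorimetric) or western blot (chemiluminescence), both with one shared pSer396 antibody, EC50 for lowering phosphorylation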
Procedure: Two days before treatment, cells were seeded onto 96 well plates at 5×10^4 cells/well.
Wells were visually checked for cell death or change in morphology and supernatants were tested for cytotoxicity by measurement of lactate dehydrogenase release (LDH, CytoToxOne kit, Promega) if necessary.
Cells were lysed with RIPA buffer complemented with phosphatase and protease inhibitors then lysates were spun down at 12,000 g for 10 min to remove any cellular debris. Lysates are then either directly tested for pSer396 by ELISA (Life Technology, Kit KHB7031) or loaded on NuPage Bis-Tris gels for western blot analysis. Colorimetric detection of ELISA signal is performed by Cytation3 plate reader (Biotek) and the chemiluminescence signal for HRP-linked antibodies used in western blotting is detected using a Carestream Image Station. The same pSer396 antibody is used for detection of pTau in both assays.

GSK3β kinase = GSK3β kinase (Homo sapiens (Human), UniProt P49841); test: GSK3β kinase assay (Ser/Thr 09 peptide Z-lyte, FRET); format: biochemical; conditions: method text calls the value IC50;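 further: Coumarin/fluorescein emission ratio converted to percent phosphorylation against unphosphorylated (0%) and phosphorylated (100%) controls, 1 h compound incubation at room temperature, 11-point threefold dilutions from 10 µM, run in duplicate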
GSK3β kinase, sequence (P49841 whole entry): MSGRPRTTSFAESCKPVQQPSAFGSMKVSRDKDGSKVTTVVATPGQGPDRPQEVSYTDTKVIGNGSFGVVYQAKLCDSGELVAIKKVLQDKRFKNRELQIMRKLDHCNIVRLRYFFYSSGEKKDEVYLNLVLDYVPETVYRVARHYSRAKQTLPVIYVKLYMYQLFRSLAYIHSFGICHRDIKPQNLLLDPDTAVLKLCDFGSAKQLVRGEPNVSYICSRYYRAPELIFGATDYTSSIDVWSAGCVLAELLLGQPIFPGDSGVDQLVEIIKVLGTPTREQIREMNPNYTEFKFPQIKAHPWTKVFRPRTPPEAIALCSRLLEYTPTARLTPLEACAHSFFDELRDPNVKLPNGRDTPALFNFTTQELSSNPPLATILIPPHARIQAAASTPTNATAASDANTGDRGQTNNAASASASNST

DYRK1A kinase = DYRK1A kinase (Homo sapiens (Human), UniProt Q13627); test: DYRK1A kinase assay (Ser/Thr 18 peptide Z-lyte, FRET)
Procedure: Each compound was dissolved in DMSO as a 10 mM stock and used to prepare compound source plates.
This is a non-radioactive assay using fluorescence resonance energy transfer (FRET) between coumarin and fluorescein to detect kinase activity which is represented as a ratio of coumarin emission/fluorescein emission.
The mixture was allowed to incubate with the representative compounds for one hour at room temperature. All reactions were performed in duplicate. Unphosphorylated (“0% Control”) and phosphorylated (“100% control”) forms of Ser/Thr 18 served as control reactions. Additionally, an 11-point dose-response curve of Staurosporine (1 uM top) was run to serve as a positive compound control.
After incubation, Development Reagent A was diluted in Development Buffer then added to the reaction and allowed to further incubate for one hour at room temperature.
The percent phosphorylation was then calculated using the following formula: [1−((Em ratio×F100%)−C100%)/((C0%−C100%)+(Em ratio×(F100%−F0%)))]. Dose-response curves were generated and inhibitory concentration (IC50) values were calculated using non-linear regression curve fit in the Dotmatics' Studies Software (Bishops Stortford, UK).

IL-6 = IL-6 inhibition in LPS-stimulated human peripheral blood mononuclear cells (HTRF); format: cell-based; conditions: Homo sapiens, PBMC; for inhibition at 10 µM: read-out: percent value in parentheses below EC50 >10; for EC50: IL-6, LPS-stimulated huPBMCs, HTRF
Method in brief: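 EC50 from a 4-parameter fit of DMSO-normalized HTRF (665/620 nm) IL-6 signal, duplicates. Compound was added to fresh human PBMCs in 1% FBS RPMI for 2 h (top 10 μM, 3-fold, 0.25% DMSO) before 22 h stimulation with LPS at 50 ng/mL, 37 °C.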

[4] = tested on: Wnt activity (Sp5-Luc reporter in SW480 colon carcinoma cells); test: Wnt activity screening assay (Sp5-Luc reporter gene assay); format: cell-based, human; conditions: Homo sapiens; for EC50: Sp5-Luc reporter, SW480 cells, 36 to 48 hours; for inhibition at 10 µM: SW480, read-out: percent inhibition at 10 μM
Method in brief: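 Compounds at 10 points (1:3 steps, top 10 μM, 0.1% DMSO final) were incubated 36 to 48 h at 37° C with stable Sp5-Luc SW480 reporter cells in 1% FBS medium. Luciferase luminescence was then read and expressed relative to DMSO-only cells. Four-parameter variable-slope fitting yielded EC50 values.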

[5] = DYRK1A kinase, method text calls the value IC50

Row | EC50 [1] [nM] | EC50 [3] [nM] | EC50 (GSK3β kinase) [nM] | EC50 (DYRK1A kinase; [5]) [nM] | EC50 (IL-6) [nM] | EC50 [4] [nM] | EC50 (DYRK1A kinase) [nM] | Compound | inhibition at 10 µM [1] [%] | EC50 [2] [nM] | inhibition at 10 µM (IL-6) [%] | inhibition at 10 µM [4] [%] | inhibition at 10 µM ([2]; read-out: percent inhibition at 10 μM) [%]
1 | > 10000 | > 10000 | 2840 | 70 | > 10000 | 725 | – | CC(C)N1CCN(C(=O)Nc2cc3cc(-c4cnn(C)c4)ccc3cn2)CC1 [Compound 65, 4-isopropyl-N-(6-(1-methyl-1H-pyrazol-4-yl)isoquinolin-3-yl)piperazine-1-carboxamide] | 7.3 | 2350 | 4.8 | – | –
2 | 1220 | 168 | 53 | – | 997 | 1190 | 3 | [2H]c1c(NC(=O)C2CCN(C)CC2)ncc2ccc(-c3cnn(C)c3)cc12 [Compound 66, 1-Methyl-N-(6-(1-methyl-1H-pyrazol-4-yl)isoquinolin-3-yl-4-d)piperidine-4-carboxamide] | – | 160 | – | – | –
3 | > 10000 | 948 | 66 | – | 4060 | 6950 | 7 | [2H]c1c(NC(=O)CN2CCOCC2)ncc2ccc(-c3cnn(C)c3)cc12 [Compound 68, N-(6-(1-Methyl-1H-pyrazol-4-yl)isoquinolin-3-yl-4-d)-2-morpholinoacetamide] | 47.2 | 1520 | – | – | –
4 | 1700 | 516 | 70 | 3 | 1020 | 927 | – | Cc1ncc(-c2ccc3cnc(NC(=O)[C@H]4CC[C@H](CN5CCOCC5)CC4)cc3c2)o1 [Compound 69, trans-N-(6-(2-methyloxazol-5-yl)isoquinolin-3-yl)-4-(morpholinomethyl)cyclohexane-1-carboxamide] | – | 210 | – | – | –
5 | 1720 | 307 | 73 | 2 | 952 | 1110 | – | Cc1ncc(-c2ccc3cnc(NC(=O)[C@H]4CC[C@H](CN5CCN(C)CC5)CC4)cc3c2)o1 [Compound 70, trans-N-(6-(2-Methyloxazol-5-yl)isoquinolin-3-yl)-4-((4-methylpiperazin-1-yl)methyl)cyclohexane-1-carboxamide] | – | 124 | – | – | –
6 | > 10000 | 250 | 14 | 6 | 9370 | > 10000 | – | Cc1nnc(-c2ccc3cnc(NC(=O)N[C@H]4CCN(C)C[C@@H]4F)cc3c2)s1 [Compound 71, 1-((3S,4S)-3-Fluoro-1-methylpiperidin-4-yl)-3-(6-(5-methyl-1,3,4-thiadiazol-2-yl)isoquinolin-3-yl)urea] | 46.7 | 4660 | – | 45.6 | –
7 | 489 | 2600 | > 10000 | – | 1580 | 3310 | 3 | [2H]C1([2H])N(c2cc(C(=O)Nc3cc4cc(-c5cnc(C)n5C)ccc4cn3)ccn2)C([2H])([2H])C([2H])([2H])C([2H])([2H])C1([2H])[2H] [Compound 72, N-(6-(1,2-Dimethyl-1H-imidazol-5-yl)isoquinolin-3-yl)-2-(piperidin-1-yl-d10)isonicotinamide] | – | 937 | – | – | –
8 | 1600 | > 10000 | 2580 | – | 7640 | 743 | 3 | [2H]c1c([2H])c([2H])c(C(=O)Nc2cc3cc(-c4cncn4C)ccc3cn2)c(F)c1[2H] [Compound 80] | – | 2710 | – | – | –
9 | 3310 | 5900 | 1510 | – | > 10000 | > 10000 | 3 | [2H]c1c([2H])c([2H])c(C(=O)Nc2cc3cc(-c4cncn4C)ccc3cn2)c(Cl)c1[2H] [Compound 82] | – | > 10000 | 47.6 | 29.6 | 31.2
